Data as given in US9023850B2, “Nematocidal sulfonamides” (E I du Pont de Nemours and Company, priority 2010, dated 2015).

system: cucumber seedlings; assay: Test A: phytotoxicity to the cucumber seedlings of the test units; format: in vivo; conditions: 250 ppm active ingredient applied to soil, 7 days
Procedure: Control of the southern root-knot nematode (Meloidogyne incognita) through contact and/or systemic means was evaluated in test units consisting of small open containers filled with a sandy soil mixture and cucumber seedlings. Test compounds were formulated using a solution containing 50% acetone and 50% water. Test compounds were applied directly to the soil of the test units at a concentration of 250 ppm active ingredient. Each test was replicated 3 times. After treatment, the test units were allowed to dry for 1 hour, after which time about 250 second-stage juvenile (J2) larvae were pipetted into the soil. The test units were held at 27° C. and watered as needed for 7 days. Nematocidal efficacy was determined by the amount of root gall formation observed when compared to an untreated control. No gall formation was indicative of 100% nematode control. Gall formation equivalent to that found in the untreated control was indicative of 0% control. No nematode control rating was given to compounds showing significant phytotoxicity.

Row | Compound | phytotoxicity
1 | COc1ccc(Cl)c(S(=O)(=O)NC(=O)c2cn3cc(C(F)(F)F)ncc3n2)c1 [Compound 1, N-[(2-chloro-5-methoxyphenyl)sulfonyl]-6-(trifluoromethyl)imidazo[1,2-a]pyrazine-2-carboxamide] | no significant phytotoxicity
2 | O=C(NS(=O)(=O)c1cc(C(F)(F)F)ccc1Cl)c1cn2cc(Br)cnc2n1 [Compound 4, 6-bromo-N-[[2-chloro-5-(trifluoromethyl)phenyl]sulfonyl]imidazo[1,2-a]pyrimidine-2-carboxamide] | no significant phytotoxicity
3 | O=C(NS(=O)(=O)c1cc(C(F)(F)F)ccc1Cl)c1cn2cc(C(F)(F)F)cnc2n1 [Compound 6, N-[[2-chloro-5-(trifluoromethyl)phenyl]sulfonyl]-6-(trifluoromethyl)imidazo[1,2-a]pyrimidine-2-carboxamide] | no significant phytotoxicity
